Numbers after ± are expanded uncertainties.

From the NIST ThermoML archive (doi:10.1021/acs.jced.5b01024) come the findings set out here.

This series is described as follows: refractive index (Na D-line) (dimensionless). The settings on record: 294.15 K; 100 kPa; Liquid; Standard Abbe refractometry.

By refractive index is commonly meant a measure of how strongly the sample bends light. For the molecule `O` [water], the refractive index came out at 1.33285 ± 0.00042.

`CCCCO` [butan-1-ol]: the refractive index is 1.39782 ± 0.00042.

For `CCCO` [propan-1-ol], the refractive index worked out at 1.3846 ± 0.00042.
